Assays:
HIV-2 strains = assay: HIV-2 strains, reverse transcriptase activity in MT-2 cells; format: cell-based
Description: Virus yields were measured in dose-response experiments by either luciferase activity in human T-cells (CEM-NKR-CCR5-Luc), extracellular reverse transcriptase activity in MT-2 cells (T-tropic viruses), or extracellular p24 antigen in PM1 cells (M-tropic viruses).
Multiple-cycle assays using recombinant viruses or clinical isolates were used to assess MI antiviral activity as described previously ([10]). pNLRepRlucP373S (the P373S change is in the Gag gene and converts an outlier polymorphism in the NL4-3 gene to the prevalent amino acid in the population) plasmids containing SDMs in Gag or gag/pr regions from clinical isolates were transfected into HEK 293T cells, and the supernatant containing recombinant virus was harvested after 4 to 5 days. Virus was used to infect MT-2 cells in the presence of a 3-fold serially diluted compound at a final dimethyl sulfoxide (DMSO) concentration of 1%. The inocula of the reporter viruses were determined based on the luciferase activity detected on day 4 postinfection. The MOI (ratio of infectious virions to target cells) of reporter-free laboratory strains and clinical isolates was 0.005, as derived from a tissue culture infectious dose study. Clinical isolates or reporter-free viruses were examined in the reporter CEM-NKR-CCR5-Luc cells or PBMCs at MOIs ranging from 0.005 to 0.01. Each infection started with a drug-free preincubation of the cell-virus mixtures, performed at 37°C and 5% CO2 for either 1 h at 2 times the final cell density (reporter viruses) or 1 h (reporter-free laboratory strains) or 3 h (clinical isolates) using cell pellets in 0.5 mL of medium. […] Virus growth was determined on days 4 to 5 postinfection for reporter variants or days 5 to 11 for the other viruses. The reporter viruses were detected by a luciferase assay according to manufacturer protocols (Brite-Glo luciferase kit [Promega] for CEM-NKR-CCR5-Luc cells and Dual-Luciferase Reporter 1000 assay system [Promega] for the other cells), and luminescence was detected on a Wallac Trilux. The growth of clinical isolates in PBMCs was quantitated by reverse transcriptase activity in a 96-well scintillation proximity assay (SPA). […] Luminescence was detected on a Wallac Trilux programmed for tritium counting with SPA beads in opaque plates. The growth of the reporter-free laboratory M-tropic strains and clinical isolates was monitored by a p24 enzyme-linked immunosorbent assay (ELISA; PerkinElmer Life Sciences, Waltham, MA) performed on culture supernatants.
Maximal percent inhibition values were calculated as MPI = 100 – (mean signals at the 2 highest concentrations of compound/mean signal of 2 no-drug control wells) × 100.

[1] = system: RepRlucNL4-3GagP373S variants; assay: Virus breakthrough in MT-2 cell culture in the presence of compound; format: cell-based, HIV-1; settings: for Days to virus breakthrough, Expt 1 / Days to virus breakthrough, Expt 2: drug 80 nM; for samples exhibiting breakthrough: low and high MOIs, 80 nM, over the 46-day experiment
Description: The ability of virus to break through and grow in the presence of an inhibitory concentration of a compound in cell culture provides an indication of its resistance barrier. […] Experiments were performed in duplicate at a low or high MOI (0.005 and 0.05) and at a drug concentration of 80 nM with RepRlucP373S WT virus or SDM-containing virus with known Gag polymorphisms (Table 6).
Cultures were incubated at 37°C and 5% CO2 until ∼100% cytopathic effect (CPE) was observed. […] At each passage, 100 μL of culture supernatant was collected and stored at −20°C. When a culture reached 100% CPE, it was terminated, and supernatants were harvested for subsequent virus population sequencing.

[2] = Human immunodeficiency virus 2, MT2, HIV-2 287
[3] = Human immunodeficiency virus 2, MT2, HIV-2 ROD, second value in cell

C=C(C)[C@@H]1CC[C@]2(NCCN3CCS(=O)(=O)CC3)CC[C@]3(C)[C@H](CC[C@@H]4[C@@]5(C)CC=C(c6ccc(C(=O)O)cc6)C(C)(C)[C@@H]5CC[C@]43C)[C@@H]12 [GSK’795, reference compound]
EC50 (HIV-2 strains; [2]): 751 nM | EC50 (HIV-2 strains; [3]): 17 nM | Days to virus breakthrough, Expt 1 ([1]; High MOI (0.05), V362I): 7 days | Days to virus breakthrough, Expt 2 ([1]; High MOI (0.05), V362I): 7 days | Days to virus breakthrough, Expt 1 ([1]; High MOI (0.05), V370A): 11 days | Days to virus breakthrough, Expt 2 ([1]; High MOI (0.05), V370A): 11 days | Days to virus breakthrough, Expt 1 ([1]; High MOI (0.05), V370M): 7 days | Days to virus breakthrough, Expt 2 ([1]; High MOI (0.05), V370M): 7 days | Days to virus breakthrough, Expt 1 ([1]; High MOI (0.05), Wild type): 11 days | Days to virus breakthrough, Expt 2 ([1]; High MOI (0.05), Wild type): 14 days | Days to virus breakthrough, Expt 1 ([1]; Low MOI (0.005), V362I): 7 days | Days to virus breakthrough, Expt 2 ([1]; Low MOI (0.005), V362I): 11 days | Days to virus breakthrough, Expt 1 ([1]; Low MOI (0.005), V370A): 11 days | Days to virus breakthrough, Expt 2 ([1]; Low MOI (0.005), V370A): 18 days | Days to virus breakthrough, Expt 1 ([1]; Low MOI (0.005), V370M): 7 days | Days to virus breakthrough, Expt 2 ([1]; Low MOI (0.005), V370M): 11 days | Days to virus breakthrough, Expt 1 ([1]; Low MOI (0.005), Wild type): >46 days | Days to virus breakthrough, Expt 2 ([1]; Low MOI (0.005), Wild type): 14 days | samples exhibiting breakthrough [1]: 15 of 16

C=C(C)[C@@H]1CC[C@]2(NCCN3CCS(=O)(=O)CC3)CC[C@]3(C)[C@H](CC[C@@H]4[C@@]5(C)CC=C(C6=CC[C@@](CF)(C(=O)O)CC6)C(C)(C)[C@@H]5CC[C@]43C)[C@@H]12 [GSK’254]
EC50 (HIV-2 strains; [2]): > 1390 nM | EC50 (HIV-2 strains; [3]): 2.5 nM | Days to virus breakthrough, Expt 1 ([1]; High MOI (0.05), V362I): 11 days | Days to virus breakthrough, Expt 2 ([1]; High MOI (0.05), V362I): 11 days | Days to virus breakthrough, Expt 1 ([1]; High MOI (0.05), V370A): >46 days | Days to virus breakthrough, Expt 2 ([1]; High MOI (0.05), V370A): >46 days | Days to virus breakthrough, Expt 1 ([1]; High MOI (0.05), V370M): 21 days | Days to virus breakthrough, Expt 2 ([1]; High MOI (0.05), V370M): 11 days | Days to virus breakthrough, Expt 1 ([1]; High MOI (0.05), Wild type): >46 days | Days to virus breakthrough, Expt 2 ([1]; High MOI (0.05), Wild type): 18 days | Days to virus breakthrough, Expt 1 ([1]; Low MOI (0.005), V362I): 46 days | Days to virus breakthrough, Expt 2 ([1]; Low MOI (0.005), V362I): >46 days | Days to virus breakthrough, Expt 1 ([1]; Low MOI (0.005), V370A): >46 days | Days to virus breakthrough, Expt 2 ([1]; Low MOI (0.005), V370A): 11 days | Days to virus breakthrough, Expt 1 ([1]; Low MOI (0.005), V370M): >46 days | Days to virus breakthrough, Expt 2 ([1]; Low MOI (0.005), V370M): 18 days | Days to virus breakthrough, Expt 1 ([1]; Low MOI (0.005), Wild type): 14 days | Days to virus breakthrough, Expt 2 ([1]; Low MOI (0.005), Wild type): >46 days | samples exhibiting breakthrough [1]: 9 of 16

— publication PMC8765437, “GSK3640254 Is a Novel HIV-1 Maturation Inhibitor with an Optimized Virology Profile” (Antimicrobial Agents and Chemotherapy, 2022)
